# Measurements from patent US20080200473A1, “Imidazo [1,2-a]Pyridine Compounds, Compositions, Uses and Methods Thereto” (Ferrer Internacional, S.A., priority 2004, published 2008).
# How the values were obtained:
# mice = experiment: In vivo predictive sedation-hypnosis test (inhibition of traveled distance); parameters: species or system mouse; details: male CD1 mice; single equimolecular intraperitoneal doses; traveled distance over 30 min after dosing (first 5 min discarded) versus control
# α2-GABAA receptor = experiment: Ligand-binding assay, competitive with radiolabeled flumazenil, spinal cord membranes; details: Affinity for α2-GABAA receptor, rat spinal cord membranes, radiolabeled flumazenil 1 nM; for % Inhibition 10^−5M: 10^-5M test compound; for % Inhibition 10^−7M: 10^-7M test compound
# α1-GABAA receptor = experiment: Ligand-binding assay, competitive with radiolabeled flumazenil, cerebellum membranes; details: Affinity for α1-GABAA receptor, rat cerebellum membranes, radiolabeled flumazenil 1 nM; for % Inhibition 10^−5M: 10^-5M test compound; for % Inhibition 10^−7M: 10^-7M test compound
Structure (SMILES),% Inhibition Motor Activity (mice) [%],% Inhibition 10^−5M (α2-GABAA receptor) [%],% Inhibition 10^−7M (α2-GABAA receptor) [%],% Inhibition 10^−5M (α1-GABAA receptor) [%],% Inhibition 10^−7M (α1-GABAA receptor) [%]
"Cc1ccc(-c2nc3ccc(C)cn3c2CNC(=O)c2cnccn2)cc1 [Example 89, Pyrazine-2-carboxylic acid (6-methyl-2-p-tolyl-imidazo[1,2-a]pyridin-3-ylmethyl)-amide]",74.65,98.2,54.5,100.3,88.2
"Cc1ccc(-c2nc3ccc(C)cn3c2CNC(=O)c2c(C)noc2C)cc1 [Example 90, 3,5-Dimethyl-isoxazole-4-carboxylic acid (6-methyl-2-p-tolyl-imidazo[1,2-a]pyridin-3-ylmethyl)-amide]",82.12,31.8,0.0,84.5,0.0
"Cc1ccc(-c2nc3ccc(C)cn3c2CN(C)C(=O)c2cscn2)cc1 [Example 94, Thiazole-4-carboxylic acid methyl-(6-methyl-2-p-tolyl-imidazo[1,2-a]pyridin-3-ylmethyl)-amide]",89.33,94.5,33.2,99.5,78.5
"Cc1ccc(-c2nc3ccc(C)cn3c2CC(=O)N(C)C)cc1 [Zolpidem, reference compound]",90.80,78.2,20.1,94.4,73.6
